System: Plasmodium berghei
Experiment: Luciferase/luciferin-expressing antifolate-resistant parasites were used to infect a culture of HepG2 cells that were pre-incubated with compounds. Infected hepatocytes emit light due to the luciferase reaction. Assay results are presented as the percent inhibition of light emission compared to control. […]
Type: functional
Conditions: sporozoite; for IC90: read-out: LUCIFERASE INFECTION ASSAY - IC90
[1] = read-out: LUCIFERASE INFECTION ASSAY - IC50

Compound | IC90 | further results
Cc1onc(-c2c(Cl)cccc2Cl)c1-c1nc(-c2cc(-c3ccccc3)c(C(F)(F)F)s2)cs1 | > 6.14 µM | IC50 (FFLUC_HILL_SLOPE 14.8, FFLUC_R_SQUARED 0.219, HEPG2TOX_HILL_SLOPE 0.104, HEPG2TOX_R_SQUARED 0.184, PBLUC_HILL_SLOPE 1.63, PBLUC_R_SQUARED 0.31, read-out: LUCIFERASE INFECTION ASSAY - IC50): > 6.14 µM
Cc1ccc(-n2c(C)cc(C(=O)CSc3nc(N)cc(N)n3)c2C)cc1C | 4.39 µM | IC50 (HEPG2TOX_HILL_SLOPE 0.381, HEPG2TOX_R_SQUARED 0.896, PBLUC_HILL_SLOPE 2.47, PBLUC_R_SQUARED 0.602, read-out: LUCIFERASE INFECTION ASSAY - IC50): 1.81 µM
N#Cc1ccc(F)c(CN2CCN(Cc3nc(-c4ccc(Cl)cc4)no3)CC2)c1 | > 10 µM | IC50 [1]: > 10 µM
Cc1occc1C(=O)NN=CC1C(=O)N(Cc2ccccc2)C(=O)c2ccccc21 (stereo not drawn) | 7.7 µM | IC50 (FFLUC_HILL_SLOPE 77.8, FFLUC_R_SQUARED 0.432, HEPG2TOX_HILL_SLOPE 1.95, HEPG2TOX_R_SQUARED 0.861, PBLUC_HILL_SLOPE 6.12, PBLUC_R_SQUARED 0.278, read-out: LUCIFERASE INFECTION ASSAY - IC50): 5.38 µM
c1ccc(Oc2ccccc2-c2cnc3c(NCCc4cccnc4)nccn23)cc1 | 7.62 µM | IC50 (HEPG2TOX_HILL_SLOPE 47.6, HEPG2TOX_R_SQUARED 0.873, PBLUC_HILL_SLOPE 7.25, PBLUC_R_SQUARED 0.536, read-out: LUCIFERASE INFECTION ASSAY - IC50): 5.63 µM
CCCNC(=O)c1c(NC(=O)c2cccc(Cl)c2Cl)nc2ccc(C)cn12 | > 8.14 µM | IC50 [1]: > 8.14 µM
CCc1sc2nc(SCC(=O)NC(C)(C#N)C(C)C)n(Cc3ccc(C)cc3)c(=O)c2c1C (stereo not drawn) | > 10 µM | IC50 (FFLUC_HILL_SLOPE 10, FFLUC_R_SQUARED 0.698, read-out: LUCIFERASE INFECTION ASSAY - IC50): > 10 µM
CCOC(=O)c1c(C)oc2nc(CN(C)Cc3ccc(OCC)cc3)nc(N)c12 | 8.75 µM | IC50 (PBLUC_HILL_SLOPE 4.1, PBLUC_R_SQUARED 0.674, read-out: LUCIFERASE INFECTION ASSAY - IC50): 5.12 µM
O=C(NCCO)c1cccc(-c2ccc3ncc(-c4cccnc4)n3n2)c1 | 3.93 µM | IC50 (HEPG2TOX_HILL_SLOPE 1.56, HEPG2TOX_R_SQUARED 0.733, PBLUC_HILL_SLOPE 4.25, PBLUC_R_SQUARED 0.42, read-out: LUCIFERASE INFECTION ASSAY - IC50): 2.34 µM
Cc1cc(C)c(S(=O)(=O)N2CCN(C(=O)CCCOc3ccc(Cl)c(C)c3)CC2)c(C)c1 | > 10 µM | IC50 [1]: > 10 µM
CCOc1ccc(OCc2ccc(C(=O)NNC3CC(=O)N(CCOC)C3=O)cc2)cc1 (stereo not drawn) | > 10 µM | IC50 [1]: > 10 µM
Cn1nc(C(C)(C)C)cc1NC(=O)Cc1ccc(-c2ccccc2)cc1 | > 10 µM | IC50 (HEPG2TOX_HILL_SLOPE 0.763, HEPG2TOX_R_SQUARED 0.965, PBLUC_HILL_SLOPE 1.31, PBLUC_R_SQUARED 0.513, read-out: LUCIFERASE INFECTION ASSAY - IC50): 2.95 µM
CC(=O)NC(C)CCc1ccc(C(=O)Cn2ncc(Cl)c(Cl)c2=O)cc1 (stereo not drawn) | 9.36 µM | IC50 (HEPG2TOX_HILL_SLOPE 9.09, HEPG2TOX_R_SQUARED 0.148, PBLUC_HILL_SLOPE 4.21, PBLUC_R_SQUARED 0.695, read-out: LUCIFERASE INFECTION ASSAY - IC50): 5.55 µM
CS(=O)(=O)c1ncc(Cl)c(C(=O)Nc2nc(-c3cc(F)ccc3F)cs2)n1 | 6.15 µM | IC50 (HEPG2TOX_HILL_SLOPE 13.3, HEPG2TOX_R_SQUARED 0.702, PBLUC_HILL_SLOPE 67.7, PBLUC_R_SQUARED 0.588, read-out: LUCIFERASE INFECTION ASSAY - IC50): 5.95 µM
FC(F)(F)c1ccc(Nc2ccc3c(c2)CCC3)nc1 | > 10 µM | IC50 [1]: > 10 µM
COc1cc(NC(=O)N2Cc3cnc(Nc4ccc(Oc5ccccc5)cc4)nc3C2)cc(OC)c1OC | > 6.43 µM | IC50 (PBLUC_HILL_SLOPE 5.21, PBLUC_R_SQUARED 0.0507, read-out: LUCIFERASE INFECTION ASSAY - IC50): 5.26 µM
COc1ccc(-c2csc3ncnc(NCCCCCc4n[nH]c(N)c4C#N)c23)cc1 | 3.53 µM | IC50 (HEPG2TOX_HILL_SLOPE 1.47, HEPG2TOX_R_SQUARED 0.942, PBLUC_HILL_SLOPE 36.2, PBLUC_R_SQUARED 0.623, read-out: LUCIFERASE INFECTION ASSAY - IC50): 3.33 µM
CS(=O)(=O)c1ccc(-c2ccc3ncc(-c4cccc(CO)c4)n3n2)cc1 | 3.89 µM | IC50 (HEPG2TOX_HILL_SLOPE 2.77, HEPG2TOX_R_SQUARED 0.883, PBLUC_HILL_SLOPE 15.3, PBLUC_R_SQUARED 0.0795, read-out: LUCIFERASE INFECTION ASSAY - IC50): 3.37 µM
Cc1ccc(C2Nc3ccccc3C(=O)N2C(C)c2ccccc2)o1 (stereo not drawn) | > 10 µM | IC50 [1]: > 10 µM
O=C(/C=C/c1ccc2ccccc2n1)N1CCCC(c2nc3ccccc3[nH]2)C1 (stereo not drawn) | 9.5 µM | IC50 (HEPG2TOX_HILL_SLOPE 11.0, 10.5, HEPG2TOX_R_SQUARED 0.675, 0.360, PBLUC_HILL_SLOPE 2.71, 0.363, PBLUC_R_SQUARED 0.567, 0.526, read-out: LUCIFERASE INFECTION ASSAY - IC50): 2.81 µM

Compound | IC90 | further results
Cc1cc(C(=O)CSC(c2ccccc2)c2ccccc2)c(C)n1C | > 10 µM | IC50 [1]: > 10 µM
Nc1nc(N)nc(COC(=O)c2c3c(nc4ccccc24)/C(=C/c2c(F)cccc2Cl)CC3)n1 | > 10 µM | IC50 (HEPG2TOX_HILL_SLOPE 0.332, HEPG2TOX_R_SQUARED 0.762, PBLUC_HILL_SLOPE 7.86, PBLUC_R_SQUARED 0.0482, read-out: LUCIFERASE INFECTION ASSAY - IC50): > 10 µM
Cc1cc(C(=O)NC2CC2)c(C)n1-c1ccc(C(C)C)cc1 | > 10 µM | IC50 (PBLUC_HILL_SLOPE 2.98, PBLUC_R_SQUARED 0.567, read-out: LUCIFERASE INFECTION ASSAY - IC50): 6.28 µM
N#Cc1cc(-c2ccc(Cl)cc2)cnc1OC(=O)c1ccc(Cl)cc1 | > 8.94 µM | IC50 (HEPG2TOX_HILL_SLOPE 24.3, HEPG2TOX_R_SQUARED 0.913, PBLUC_HILL_SLOPE 3.24, PBLUC_R_SQUARED 0.477, read-out: LUCIFERASE INFECTION ASSAY - IC50): 6.19 µM
COc1ccc(CCN2C(=O)N(CC(C)C)C(=O)C23CCN(C2CCc4ccccc4C2)CC3)cc1 (stereo not drawn) | 2.72 µM | IC50 (HEPG2TOX_HILL_SLOPE 52.5, HEPG2TOX_R_SQUARED 0.896, PBLUC_HILL_SLOPE 13.1, PBLUC_R_SQUARED 0.487, read-out: LUCIFERASE INFECTION ASSAY - IC50): 2.3 µM
COc1cccc(C(=O)OCC(=O)c2c[nH]c3ccccc23)c1O | > 10 µM | IC50 [1]: > 10 µM
CCCCc1[nH]nc2ccnc(-c3ccc(CO)cc3)c12 | > 10 µM | IC50 (HEPG2TOX_HILL_SLOPE 1.75, HEPG2TOX_R_SQUARED 0.977, read-out: LUCIFERASE INFECTION ASSAY - IC50): > 10 µM
Cc1cccc2nc(C(=O)Nc3ccc4c(c3)nc3n4CCCCC3)cn12 | > 10 µM | IC50 (FFLUC_HILL_SLOPE 1.04, FFLUC_R_SQUARED 0.903, PBLUC_HILL_SLOPE 0.368, PBLUC_R_SQUARED 0.555, read-out: LUCIFERASE INFECTION ASSAY - IC50): 0.159 µM
Cc1cc(N2CCN(c3cnn(-c4nc5ccccc5[nH]4)c(=O)c3Cl)CC2)nc(C(C)C)n1 | 7.33 µM | IC50 (HEPG2TOX_HILL_SLOPE 0.0256, HEPG2TOX_R_SQUARED 0.0179, PBLUC_HILL_SLOPE 3.18, PBLUC_R_SQUARED 0.351, read-out: LUCIFERASE INFECTION ASSAY - IC50): 3.68 µM
C1=C(c2nc3ccccc3[nH]2)C(c2ccccc2)=NNC1c1ccccc1 (stereo not drawn) | > 10 µM | IC50 [1]: 9.97 µM
Oc1cc2[nH]c3ccccc3c2cc1CN1CCN(Cc2ccccc2)CC1 | > 10 µM | IC50 (PBLUC_HILL_SLOPE 3.66, PBLUC_R_SQUARED 0.154, read-out: LUCIFERASE INFECTION ASSAY - IC50): 6.03 µM
CCOC(=O)C1=C(Nc2ccc(OS(=O)(=O)c3ccc(Cl)cc3)cc2)C(=O)N(C(C)(C)C)C1 | > 6.69 µM | IC50 [1]: > 6.69 µM
CN(Cc1ccc2c(c1)OCO2)c1cnn(-c2nc3ccccc3[nH]2)c(=O)c1Cl | 3.94 µM | IC50 (HEPG2TOX_HILL_SLOPE 3.37, 11.7, HEPG2TOX_R_SQUARED 0.995, 0.503, PBLUC_HILL_SLOPE 3.37, 1.13, PBLUC_R_SQUARED 0.633, 0.779, read-out: LUCIFERASE INFECTION ASSAY - IC50): 0.948 µM
CN(C)Cc1ccccc1CNC(=O)Nc1ccc(Cl)c(Cl)c1 | > 2 µM | IC50 (PBLUC_HILL_SLOPE 1.7, PBLUC_R_SQUARED 0.0619, read-out: LUCIFERASE INFECTION ASSAY - IC50): 0.986 µM
CC(C)c1ccc(Nc2ccn3ncc(-c4cccc(N)c4)c3n2)cc1 | > 9.61 µM | IC50 (HEPG2TOX_HILL_SLOPE 3.91, HEPG2TOX_R_SQUARED 0.953, PBLUC_HILL_SLOPE 9.39, PBLUC_R_SQUARED 0.444, read-out: LUCIFERASE INFECTION ASSAY - IC50): 8 µM
CCC1CCCCN1CC(O)COC(c1ccc(Cl)cc1)c1ccc(Cl)cc1 (stereo not drawn) | > 10 µM | IC50 (PBLUC_HILL_SLOPE 1.73, PBLUC_R_SQUARED 0.487, read-out: LUCIFERASE INFECTION ASSAY - IC50): 5.6 µM
COC(=O)c1ccc(S(=O)(=O)N2c3ccccc3CCC2C)cc1 (stereo not drawn) | > 10 µM | IC50 [1]: > 10 µM
CCOC(=O)c1c(C)c(C)n(Cc2ccccc2)c1NC(=O)c1ccccc1 | > 8.77 µM | IC50 (PBLUC_HILL_SLOPE 3.81, PBLUC_R_SQUARED 0.298, read-out: LUCIFERASE INFECTION ASSAY - IC50): 6.38 µM
O=C(c1c[nH]c(-c2ccccn2)c1)c1cc(Cl)ccc1O | > 10 µM | IC50 (HEPG2TOX_HILL_SLOPE 1.74, HEPG2TOX_R_SQUARED 0.992, PBLUC_HILL_SLOPE 2.29, PBLUC_R_SQUARED 0.459, read-out: LUCIFERASE INFECTION ASSAY - IC50): 5.42 µM

Source: ChEMBL document CHEMBL4483862, “Open-source discovery of chemical leads for next-generation chemoprotective antimalarials” (2018)
